Here are results for 1 molecule from US12435316B2, “Three dimensional human brain tumor models” (priority 2018, dated 2025).

The experiment relates to 3D patient-derived meningioma models (pediatric patient's meningioma tissue). The experiment in a line: Drug treatment of 3D patient-derived meningioma models, live cell staining (calcein AM) and confocal imaging. The experiment is classed as cell-based, human. The settings on record: one month-old 3D pediatric meningioma models; drug 0.05 to 0.8 mM for 48 hours; calcein AM live stain; compared to etoposide, carmustine, irinotecan hydrochloride, temozolomide. As to the method: FIGS. 7A-7B show drug treatment of 3D patient-derived meningioma models. A pediatric patient's meningioma tissue was used to generate replicates of 3D tumor models. One month-old models were treated with chemotherapeutic drugs, etoposide (VP16), carmustine (BCNU), lomustine (CCNU), irinotecan hydrochloride (CPT11) and temozolomide (TMZ) of 0.05 to 0.8 mM for 48 hours. The models were stained with calcein AM (2 uM) for live cells and confocal imaged ([…] section, 35 sections). (FIG. 7A) Maximum projection of 3D image stacks of drug-treated models. Number indicates drug concentration in mM. Ctrl, control. Scale bar, […]. (FIG. 7B) Quantification of live cell counts in relation to drug doses.
FIGS. 7A-7B show an example of drug study using patient-derived tumor models. This example used a pediatric meningioma model to test commonly used chemotherapeutic drugs (etoposide, carmustine, lomustine, irinotecan hydrochloride and temozolomide). […] Additional studies will compare the in vitro findings with the patient's clinical responses to further determine the most optimal drug regimen.
Live/Dead Assay was used to image live cells in cultures, according to the manufacturer's protocol (ThermoFisher Scientific). […] The stained cultures were imaged with a fluorescence microscope at Ex/Em of 494/517 nm and 528/617 nm for Live and Dead stains, respectively. […]

With `O=NN(CCCl)C(=O)NC1CCCCC1` [lomustine], the “tumor cell-killing effects (live cell counts in relation to drug doses)” value is recorded as “strongest tumor cell-killing effects”.
